In patent publication US20120183579A1, “COMPOUNDS FOR INFLAMMATION AND IMMUNE-RELATED USES” (Synta Pharmaceuticals Corp., priority 2008, published 2012):
Structures can show the parent of a compound that is named as a salt.

Tested on: IL-2
Assay: Inhibition of IL-2 production (Jurkat cells activated with PHA, ELISA)
Assay type: cell-based
Settings: Jurkat/PHA/1% FBS
Experimental: Jurkat cells were placed in a 96 well plate (0.5 million cells per well in 1% FBS medium), and then a test compound of this invention was added at different concentrations. After 10 minutes, the cells were activated with PHA (final concentration 2.5 μg/mL) and incubated for 20 hours at 37° C. under 5% CO2. The final volume was 200 μL. Following incubation, the cells were centrifuged, and the supernatants collected and stored at −70° C. prior to assaying for IL-2 production. A commercial ELISA kit (IL-2 Eli-pair, Diaclone Research, Besancon, France) was used to detect production of IL-2, from which dose response curves were obtained. The IC50 value was calculated as the concentration at which 50% of maximum IL-2 production after stimulation was inhibited versus a non-stimulation control.

[1] = Homo sapiens, Jurkat, numeric values

IC50 [1] [nM]	Compound	also measured
13	CC1=C(c2ccc(NC(=O)c3ccccc3F)cc2)CN(c2nccs2)CC1 [Compound 7, 2-fluoro-N-(4-(4-methyl-1-(thiazol-2-yl)-1,2,5,6-tetrahydropyridin-3-yl)phenyl)benzamide]	–
14	Cn1nnc(N2CCC(C3CC3)=C(c3ccc(NC(=O)c4c(F)cccc4F)cc3)C2)n1 [Compound 8, N-(4-(4-cyclopropyl-1-(2-methyl-2H-tetrazol-5-yl)-1,2,5,6-tetrahydropyridin-3-yl)phenyl)-2,6-difluorobenzamide]	–
15	CC1=C(c2cnc(NC(=O)c3c(F)cccc3F)cn2)CN(c2ncc(C)s2)CC1 [Compound 9, 2,6-difluoro-N-(5-(4-methyl-1-(5-methylthiazol-2-yl)-1,2,5,6-tetrahydropyridin-3-yl)pyrazin-2-yl)benzamide hydrochloride]	–
18	CC1=C(c2cnc(NC(=O)c3c(F)cccc3F)cn2)CN(c2ncccc2C#N)CC1 [Compound 10, N-(5-(1-(3-cyanopyridin-2-yl)-4-methyl-1,2,5,6-tetrahydropyridin-3-yl)pyrazin-2-yl)-2,6-difluorobenzamide]	–
19	O=C(Nc1cnc(C2=C(Cl)CCN(c3nccs3)C2)cn1)c1c(F)cccc1F [Compound 12, N-(5-(4-chloro-1-(thiazol-2-yl)-1,2,5,6-tetrahydropyridin-3-yl)pyrazin-2-yl)-2,6-difluorobenzamide hydrochloride]	–
30	CC1=C(c2cnc(NC(=O)c3cc(F)ccc3C)cn2)CN(c2ncccc2F)CC1 [Compound 13, 5-fluoro-N-(5-(1-(3-fluoropyridin-2-yl)-4-methyl-1,2,5,6-tetrahydropyridin-3-yl)pyrazin-2-yl)-2-methylbenzamide]	–
30	CC1=C(c2cnc(NC(=O)c3cc(F)ccc3Cl)cn2)CN(c2ncccc2F)CC1 [Compound 16, 2-chloro-5-fluoro-N-(5-(1-(3-fluoropyridin-2-yl)-4-methyl-1,2,5,6-tetrahydropyridin-3-yl)pyrazin-2-yl)benzamide]	–
–	CC1=C(c2cnc(NC(=O)c3c(F)cccc3F)cn2)CN(c2nc(-c3cccnc3)cs2)CC1 [Compound 17, 2,6-difluoro-N-(5-(4-methyl-1-(4-(pyridin-3-yl)thiazol-2-yl)-1,2,5,6-tetrahydropyridin-3-yl)pyrazin-2-yl)benzamide]	IC50 (Homo sapiens, Jurkat, activity class): 50 to 100 nM
32	CCn1nnc(N2CCC(C)=C(c3cnc(NC(=O)c4c(F)cccc4Cl)cn3)C2)n1 [Compound 18, 2-chloro-N-(5-(1-(2-ethyl-2H-tetrazol-5-yl)-4-methyl-1,2,5,6-tetrahydropyridin-3-yl)pyrazin-2-yl)-6-fluorobenzamide]	–
36	CC1=C(c2cnc(NC(=O)c3c(F)cccc3F)cn2)CN(c2ncc(F)cc2F)CC1 [Compound 19, N-(5-(1-(3,5-difluoropyridin-2-yl)-4-methyl-1,2,5,6-tetrahydropyridin-3-yl)pyrazin-2-yl)-2,6-difluorobenzamide]	–
52	CC1=C(c2ccc(NC(=O)c3c(F)cccc3F)cc2)CN(c2nnn(C)n2)CC1 [Compound 20, 2,6-difluoro-N-(4-(4-methyl-1-(2-methyl-2H-tetrazol-5-yl)-1,2,5,6-tetrahydropyridin-3-yl)phenyl)benzamide]	–
55	CC1=C(c2cnc(NC(=O)c3cc(F)ccc3Cl)cn2)CN(c2nccs2)CC1 [Compound 21, 2-chloro-5-fluoro-N-(5-(4-methyl-1-(thiazol-2-yl)-1,2,5,6-tetrahydropyridin-3-yl)pyrazin-2-yl)benzamide]	–
10	CC1=C(c2cnc(NC(=O)c3ccc(F)cc3F)cn2)CN(c2nccs2)CC1 [Compound 22, 2,4-difluoro-N-(5-(4-methyl-1-(thiazol-2-yl)-1,2,5,6-tetrahydropyridin-3-yl)pyrazin-2-yl)benzamide]	–
14	CC1=C(c2ccc(NC(=O)c3ccncc3F)cc2)CN(c2ncccc2F)CC1 [Compound 23, 3-fluoro-N-(4-(1-(3-fluoropyridin-2-yl)-4-methyl-1,2,5,6-tetrahydropyridin-3-yl)phenyl)isonicotinamide]	–
14	CC1=C(c2cnc(NC(=O)c3c(F)cccc3F)cn2)CN(c2ncccc2O)CC1 [Compound 24, 2,6-difluoro-N-(5-(1-(3-hydroxypyridin-2-yl)-4-methyl-1,2,5,6-tetrahydropyridin-3-yl)pyrazin-2-yl)benzamide]	–
17	CC1=C(c2ccc(NC(=O)c3ccccc3Cl)cc2)CN(c2nnn(C)n2)CC1 [Compound 25, 2-chloro-N-(4-(4-methyl-1-(2-methyl-2H-tetrazol-5-yl)-1,2,5,6-tetrahydropyridin-3-yl)phenyl)benzamide]	–
18	CC1=C(c2ccc(NC(=O)c3c(F)cncc3F)cc2)CN(c2ccccn2)CC1 [Compound 26, 3,5-difluoro-N-(4-(4-methyl-1-(pyridin-2-yl)-1,2,5,6-tetrahydropyridin-3-yl)phenyl)isonicotinamide hydrochloride]	–

IC50 [1] [nM]	Compound	also measured
19	CC1=C(c2ccc(NC(=O)c3ccncc3Cl)cc2)CN(c2nnn(C)n2)CC1 [Compound 27, 3-chloro-N-(4-(4-methyl-1-(2-methyl-2H-tetrazol-5-yl)-1,2,5,6-tetrahydropyridin-3-yl)phenyl)isonicotinamide]	–
19	O=C(Nc1ccc(C2=C(Cl)CCN(c3nccs3)C2)cc1)c1c(F)cccc1F [Compound 28, N-(4-(4-chloro-1-(thiazol-2-yl)-1,2,5,6-tetrahydropyridin-3-yl)phenyl)-2,6-difluorobenzamide]	–
20	CC1=C(c2ccc(NC(=O)c3cccc(F)c3Cl)cc2)CN(c2nnn(C)n2)CC1 [Compound 29, 2-chloro-3-fluoro-N-(4-(4-methyl-1-(2-methyl-2H-tetrazol-5-yl)-1,2,5,6-tetrahydropyridin-3-yl)phenyl) benzamide]	–
21	CC1=C(c2ccc(NC(=O)c3ccccc3F)cc2)CN(c2nnn(C)n2)CC1 [Compound 30, 2-fluoro-N-(4-(4-methyl-1-(2-methyl-2H-tetrazol-5-yl)-1,2,5,6-tetrahydropyridin-3-yl)phenyl)benzamide]	–
21	CC1=C(c2cnc(NC(=O)c3cnccc3C)cn2)CN(c2ncccc2F)CC1 [Compound 31, N-(5-(1-(3-fluoropyridin-2-yl)-4-methyl-1,2,5,6-tetrahydropyridin-3-yl)pyrazin-2-yl)-4-methylnicotinamide]	–
–	O=C(Nc1ccc(C2=C(Cl)CCN(c3nccs3)C2)cc1)c1c(F)cccc1F [Compound 32, N-(4-(4-chloro-1-(thiazol-2-yl)-1,2,5,6-tetrahydropyridin-3-yl)phenyl)-2,6-difluorobenzamide hydrochloride]	IC50 (numeric values, hydrochloride): 21 nM
22	CC1=C(c2ccc(NC(=O)c3c(F)cccc3F)cc2)CN(c2ccccn2)CC1 [Compound 33, 2,6-difluoro-N-(4-(4-methyl-1-(pyridin-2-yl)-1,2,5,6-tetrahydropyridin-3-yl)phenyl)benzamide]	–
22	Cn1nnc(N2CCC(Cl)=C(c3ccc(NC(=O)c4c(F)cccc4F)cc3)C2)n1 [Compound 34, N-(4-(4-chloro-1-(2-methyl-2H-tetrazol-5-yl)-1,2,5,6-tetrahydropyridin-3-yl)phenyl)-2,6-difluorobenzamide]	–
23	CC1=C(c2cnc(NC(=O)c3ccccc3Cl)cn2)CN(c2nccnc2Cl)CC1 [Compound 35, 2-chloro-N-(5-(1-(3-chloropyrazin-2-yl)-4-methyl-1,2,5,6-tetrahydropyridin-3-yl)pyrazin-2-yl)benzamide]	–
24	CC1=C(c2ccc(NC(=O)c3cnccc3C)cc2)CN(c2ncccc2F)CC1 [Compound 36, N-(4-(1-(3-fluoropyridin-2-yl)-4-methyl-1,2,5,6-tetrahydropyridin-3-yl)phenyl)-4-methylnicotinamide]	–
24	CC1=C(c2ccc(NC(=O)c3cccc(F)c3C)nc2)CN(c2nnn(C)n2)CC1 [Compound 37, 3-fluoro-2-methyl-N-(5-(4-methyl-1-(2-methyl-2H-tetrazol-5-yl)-1,2,5,6-tetrahydropyridin-3-yl)pyridin-2-yl) benzamide]	–
26	CC1=C(c2cnc(NC(=O)c3c(F)cccc3F)cn2)CN(c2ccncc2F)CC1 [Compound 38, 2,6-difluoro-N-(5-(1-(3-fluoropyridin-4-yl)-4-methyl-1,2,5,6-tetrahydropyridin-3-yl)pyrazin-2-yl)benzamide]	–
27	CC1=C(c2ccc(NC(=O)c3sccc3C)cc2)CN(c2nccs2)CC1 [Compound 39, 3-methyl-N-(4-(4-methyl-1-(thiazol-2-yl)-1,2,5,6-tetrahydropyridin-3-yl)phenyl)thiophene-2-carboxamide]	–
27	CC1=C(c2cnc(NC(=O)c3cc(F)ccc3F)cn2)CN(c2ncccc2F)CC1 [Compound 40, 2,5-difluoro-N-(5-(1-(3-fluoropyridin-2-yl)-4-methyl-1,2,5,6-tetrahydropyridin-3-yl)pyrazin-2-yl)benzamide]	–
28	CC1=C(c2ccc(NC(=O)c3ccncc3C)cc2)CN(c2ncccc2F)CC1 [Compound 41, N-(4-(1-(3-fluoropyridin-2-yl)-4-methyl-1,2,5,6-tetrahydropyridin-3-yl)phenyl)-3-methylisonicotinamide]	–
28	CC1=C(c2cnc(NC(=O)c3cccc(F)c3C)cn2)CN(c2ncccc2F)CC1 [Compound 42, 3-fluoro-N-(5-(1-(3-fluoropyridin-2-yl)-4-methyl-1,2,5,6-tetrahydropyridin-3-yl)pyrazin-2-yl)-2-methylbenzamide]	–
31	CC1=C(c2ccc(NC(=O)c3c(F)cc(F)cc3F)cc2)CN(c2ncccc2C#N)CC1 [Compound 43, N-(4-(1-(3-cyanopyridin-2-yl)-4-methyl-1,2,5,6-tetrahydropyridin-3-yl)phenyl)-2,4,6-trifluorobenzamide]	–
